Results: article PMC5471521, “Novel selective β1-adrenoceptor antagonists for concomitant cardiovascular and respiratory disease” (The FASEB Journal, 2017)

Columns and labels:
[1] = Metabolic stability, human hepatocytes; assay type: in vitro ADME; conditions: cryopreserved hepatocytes
Method: (§1) NDD-713.HCl and -825.HCl were incubated (0.02, 0.1, or 0.5 μM at 37°C, 120 min) with human (XenoTech, Kansas City, KS, USA) or rat liver microsomes (BD Biosciences, Brea, CA, USA) at 0.4 mg/ml protein concentration. Metabolic reaction was initiated by addition of NADPH-regenerating system or NADPH-regenerating system with uridine diphosphate glucuronic acid. Samples were quenched at time points by acetonitrile addition. Control samples, which contained neither NADPH, nor uridine diphosphate glucuronic acid, were monitored for degradation. Compound concentrations were determined by ultraperformance LC-MS (UPLC-MS) relative to calibration standards that were prepared in quenched liver microsomes and fitted to exponential decay functions to determine first-order rate constants (k) for substrate depletion. These were used to calculate in vitro intrinsic clearance (CLint) values: CLint = k/microsomal protein content (0.4 mg protein/ml). Metabolic stability assays that used rat liver cytosol (BD Biosciences), human cryopreserved hepatocytes, or rat hepatocytes were carried out similarly. Average viable cell concentrations were determined by Trypan Blue exclusion methods (in the absence of test compounds). Studies were carried out by CDCO.

[2] = target: T1, human β1-AR (Homo sapiens, UniProt P08588); experiment: Direct measurement of ERK1/2 MAPK phosphorylation in CHO-β1 cells; assay type: cell-based; conditions: 3 and 10 μM, 5- and 10-min incubations
T1 construct: expressed in transfected cells
Method: MAPK stimulation was examined by using the AlphaScreen Surefire ERK1/2 T202/Y204 assay kit from TGR Biosciences (PerkinElmer, Waltham, MA, USA), which gives a direct quantitative readout of ERK1/2 (p42/44) MAPK phosphorylation. Confluent cells (half-well 96-well plates) were serum starved for 24 h, then the assay was performed per manufacturer instructions (5- and 10-min incubations at 37°C: ligand concentrations of 3 and 10 μM). Phorbol 12,13-dibutyrate (1 μM) was used as a positive control.

[3] = system: HR (β1) and HQC (β2) in conscious rats; experiment: In vivo β1- vs. β2-selectivity, oral administration, conscious rats (isoprenaline responses); design: species or system rat; conditions: for Effect on basal and isoprenaline-stimulated HR after oral gavage: lightly sedated rats dosed by oral gavage, measured once fully recovered
Method: Adult male Sprague-Dawley rats, weighing 300−400 g, were chronically instrumented with pulsed Doppler flow probes and intravascular catheters for cardiovascular monitoring and drug administration in a 2-stage surgical protocol as described ([51]). Surgery was performed under general anesthesia (fentanyl and medetomidine, 300 μg/kg of each, i.p.), with reversal and postoperative analgesia provided by atipamezole (1 mg/kg, s.c.) and buprenorphine (0.02 mg/kg, s.c.). Experiments were performed with animals that were fully conscious and unrestrained in home cages and given free access to food and water. Cardiovascular variables were recorded by using a customized, computer-based system (Instrument Development Engineering Evaluation, Maastrich Instruments Bv, Maastrich, The Netherlands) with raw data sampled every 2 ms. Hindquarters vascular conductance (HQC) was calculated as Doppler shift (flow)/mean arterial pressure.
Experiments ran over 3 consecutive days. Lightly sedated rats (propofol at 0.1–0.2 ml of 10 mg/ml, i.v.) that were instrumented for cardiovascular monitoring were administered an oral dose of NDD-825.HCl (1 mg/kg on d 1, 3 mg/kg on d 2, 10 mg/kg on d 3; 10 ml/kg in water) by oral gavage. Each day, responses to isoprenaline infusions were monitored before and at 0.5–1.5 and 3–4 h after oral NDD-825.HCl administration.
Isoprenaline responses shown are absolute values for HR and HQC before the first dose of isoprenaline (baseline) and during the third minute of infusion of each dose. Values at baseline and during the highest isoprenaline dose were tested for statistical significance by using a nonparametric ANOVA test with correction for repeat measures [Quade test ([52])]. A value of P < 0.05 was taken as significant.

[4] = target: T2, human β3-AR (Homo sapiens, UniProt P13945); experiment: Radioligand binding at human β3-AR
T2 construct: expressed in transfected cells
Method: Chinese hamster ovary (CHO) cells that stably express human β1-ARs (CHO-β1: 1146 fmol/mg protein), human β2-ARs (CHO-β2: 466 fmol/mg protein), or human β3-ARs (CHO-β3: 790 fmol/mg protein) were grown as previously described ([11]). Human bronchial smooth muscle cells were obtained from Lonza (Basel, Switzerland) and grown in manufacturer media. Rat β-AR binding experiments (DNA from cDNA Resource Centre, Bloomsburg, PA, USA) were conducted by using transiently transfected CHO cells ([44]).
Confluent cells were examined (96-well plates, 2 h incubation at 37°C) as previously described ([11]) with ^3H-CGP12177 at 0.43–3.03 nM. Propranolol (10 μM) defined nonspecific binding. Kd values were derived from IC50 values by using the Cheng-Prusoff equation as previously described ([11]).

[5] = target: T1, human β1-AR; experiment: 3H-CGP12177 whole-cell binding in CHO-β1 cells; conditions: for Kd: CHO-β1 cells, mean ± SEM, read-out: Human β1-AR Log Kd (converted); for SI1a (in vitro binding) = Kd,β2/Kd,β1: Kd values from 3H-CGP12177 whole-cell binding, Table 1
[6] = Protein binding by ultracentrifugation, rat plasma; assay type: in vitro ADME; conditions: male, Sprague-Dawley, read-out: fu rat plasma
Method: Protein binding of 1 µM NDD-713.HCl and -825.HCl in human and rat plasma, as well as human liver microsomes, was assessed by using the ultracentrifugation technique. Frozen human plasma (Australian Red Cross Blood Service, Melbourne, VIC, Australia) and rat plasma (male Sprague-Dawley rats; Charles River, Margate, Kent, United Kingdom) were thawed at 37°C. Human liver microsomes (XenoTech) were suspended in 0.1 M phosphate buffer (pH 7.4) at protein concentrations of 0.4 mg/ml. Samples were collected immediately as stability reference controls. Spiked plasma samples (but not microsome samples) were incubated at 37°C for 1 h. […] NDD-713.HCl and -825.HCl concentrations of noncentrifuged matrix and protein-free supernatant were determined by UPLC-MS relative to calibration standards prepared in the respective matrices. Total concentration (Ctotal) was the average measured concentration in […] samples maintained at 37°C, and unbound concentration (Cunbound) was the average measured concentration in protein-free supernatants from centrifuged samples (n = 3). The compound unbound fraction (fu) was calculated: fu = Cunbound/Ctotal. Compound degradation was assessed by comparing concentrations in noncentrifuged plasma samples that were incubated at 37°C with concentrations measured in the t = 0 noncentrifuged samples. […]

[7] = Metabolic stability, human liver microsomes; assay type: in vitro ADME; conditions: in the presence of NAD+, NADPH, or in the absence of cofactors
Method: as §1

T1 sequence (P08588 whole entry): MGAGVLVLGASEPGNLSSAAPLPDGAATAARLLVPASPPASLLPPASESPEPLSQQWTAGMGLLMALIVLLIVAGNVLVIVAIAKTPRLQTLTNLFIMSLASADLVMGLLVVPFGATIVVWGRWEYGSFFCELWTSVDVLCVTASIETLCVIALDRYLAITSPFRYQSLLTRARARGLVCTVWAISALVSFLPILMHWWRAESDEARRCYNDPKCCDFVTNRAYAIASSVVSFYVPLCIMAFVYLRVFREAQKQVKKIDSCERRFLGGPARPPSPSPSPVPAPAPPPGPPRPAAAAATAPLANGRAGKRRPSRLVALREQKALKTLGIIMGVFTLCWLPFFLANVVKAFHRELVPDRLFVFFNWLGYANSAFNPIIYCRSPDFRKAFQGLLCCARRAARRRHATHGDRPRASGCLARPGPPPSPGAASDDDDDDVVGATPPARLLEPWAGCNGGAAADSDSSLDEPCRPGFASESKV
T2 sequence (P13945 whole entry): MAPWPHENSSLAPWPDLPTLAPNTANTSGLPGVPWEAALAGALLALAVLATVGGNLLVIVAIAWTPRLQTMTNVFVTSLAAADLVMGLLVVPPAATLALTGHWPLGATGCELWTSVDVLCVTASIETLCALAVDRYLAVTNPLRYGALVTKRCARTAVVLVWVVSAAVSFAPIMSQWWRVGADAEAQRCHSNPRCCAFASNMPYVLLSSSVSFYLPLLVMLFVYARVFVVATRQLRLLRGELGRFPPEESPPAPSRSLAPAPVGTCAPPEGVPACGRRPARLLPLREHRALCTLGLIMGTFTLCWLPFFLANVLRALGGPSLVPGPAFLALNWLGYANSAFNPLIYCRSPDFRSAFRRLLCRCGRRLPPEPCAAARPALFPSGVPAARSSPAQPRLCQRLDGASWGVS

| SMILES | hepatocyte CLint [1] | Agonist response by directly measuring ERK1/2 MAPK [2] | Effect on basal and isoprenaline-stimulated HR after oral gavage [3] | Affinity at human β3-AR [4] | Kd [5] | SI1a (in vitro binding) = Kd,β2/Kd,β1 [5] | Human β1 vs. β2 selectivity Kd,β2/Kd,β1 ([5]; from 3H-CGP12177 whole-cell binding) | fraction unbound at 1 h, 1 µM [6] | microsomal CLint [7] | Effect on basal HR ([3]; conscious rats, oral gavage 1 mg/kg (d 1), n = 3) | Lowering of basal HR and reduction in isoprenaline-stimulated HR ([3]; conscious rats, oral gavage 3 and 10 mg/kg on subsequent days, compared with 1 mg/kg) | Changes in HQC responses to isoprenaline ([3]; conscious rats, oral gavage, any dose level (1, 3, 10 mg/kg)) |
| --- | --- | --- | --- | --- | --- | --- | --- | --- | --- | --- | --- | --- |
| NC(=O)c1ccc(OCCNC[C@H](O)COc2ccc3c(c2)OC[C@@H](COCC2CC2)O3)cc1 [NDD-713] | < 6 µL/min/1e6 cells | did not stimulate any agonist response | caused a reduction of basal and isoprenaline-stimulated HR | so low that accurate measurements were not possible | 15.1 nM | 589 | 589 | 0.16 | < 0.16 µL/min/mg | – | – | – |
| O=C1NCc2cc(OCCNC[C@H](O)COc3ccc4c(c3)OC[C@@H](COCC3CC3)O4)ccc21 [NDD-825] | 6 µL/min/1e6 cells | did not stimulate any agonist response | caused a reduction of basal and isoprenaline-stimulated HR | so low that accurate measurements were not possible | 5.25 nM | 1023 | – | 0.11 | < 0.16 µL/min/mg | small but significant lowering of basal HR | more pronounced | No significant changes |
